Consider 64 molecules from a melting point compilation (Tetko et al.; mined from patent text by program, amines drawn as free bases though some values may be those of a salt).

SMILES strings stand for the structures. A value given as a limit tells only on which side of the number the result lay.

What is called melting point is the temperature, or range, at which the solid turns liquid. Consider `COc1cc(C(=O)N2CCN(c3cccc(C)c3Cl)CC2)cc(OC)c1OC`, for which the melting point was 156 to 159 °C.

`COc1ccc(N2C(=O)C3=C(SCCS3)C2O)cc1` (centres undefined) displayed a melting point of 153 to 154 °C.

`COC(=O)COc1ccc(C(=O)NNC(=O)c2ccc(C(=N)SC)cc2)cc1` had a melting point of 208 to 210 °C.

Molecule `Cc1nccn1CCCNC(=O)c1cccnc1Cl` yielded a melting point of 126 to 128 °C.

The molecule `CCCc1c(OCCCCCCc2ccc3cc(O)c(O)cc3c2)ccc(C(=O)O)c1O` yielded a melting point of 154 to 158 °C.

In turn, `O=C1CC(O)CC(/C=C/c2ccccc2-c2ccccc2)O1` (centres undefined) gave a melting point of 89 to 91 °C.

`CSCCCCCC=C(NC(=O)C1CC1(C)C)C(=O)O` (centres undefined) returned a melting point of 82 to 84 °C.

For the molecule `CN(C)C=CC=C(C#N)C(=O)N(C)C`, the melting point was 149 to 150 °C.

`Cc1cc2cc(N=[N+]=[N-])ccc2[nH]1` came in with a melting point of 57 to 60 °C.

In turn, `NC(=O)N(O)CCNC(=O)c1cccc(Oc2ccccn2)c1` returned a melting point of 159 to 160 °C.

For `O=C(Nc1ccc(CN2CCOCC2)cc1)C1=Cc2cc(-c3ccccc3)ccc2CC1`, the melting point was in the range of 186 to 187 °C.

Turning to `ClCCCOc1ccc(-c2cnc(CSCCOc3ccccc3)o2)cc1`, the melting point is 71 to 73 °C.

Molecule `CC=CCn1c(C)c(CCCCC)c2cnnc(OCc3ccc(F)cc3)c21` returned a melting point of 65 to 69 °C.

For the molecule `CC1Cc2cc(S(=O)(=O)n3cc(-c4ccccc4)[nH]c3=O)ccc2N1C(=O)CCl` (centres undefined), the melting point lay in the range of 157 to 159 °C.

On to `Cn1nc(-c2ncc(Cl)cc2F)c(I)c1OC(F)F`, for which the melting point lay within 77 to 78 °C.

The molecule `CN(C)C(=O)Nc1ccc(Oc2ccc3c(c2)OC(C)(C)CC3)cc1` showed a melting point of 137 to 138 °C.

In the case of `CON=C(c1ccccc1)c1ccc2c(c1)C(C)(C)CCN2CCOc1ccc(CC(Nc2ccccc2C(=O)c2ccccc2)C(=O)O)cc1` (centres undefined), the melting point fell in the range of 100 to 102 °C.

Molecule `Nc1ccncc1Nc1cccc2cc[nH]c12` returned a melting point of 68 to 70 °C.

`O=C(C=Cc1ccc(Cl)cc1)C1CC1` gave a melting point of 61 °C.

Turning to `Cn1c([N+](=O)[O-])cnc1-c1cc(C(N)=O)on1`, the melting point lay in the range of 235 to 238 °C.

`CCCOC(=O)c1cc(=O)c2cc(OCc3cccc(OCc4ccc5ccccc5n4)c3)ccc2o1` returned a melting point of 109 to 110 °C.

`NS(=O)(=O)c1cc(C(=O)O)cc(S)c1Oc1ccccc1` displayed a melting point of 225 °C.

As for `CNC(=O)N(O)Cc1ccc(Br)cc1`, the melting point was in the range of 165 to 167 °C.

For `OCCn1c(NC2CCN(Cc3ccccc3)CC2)nc2cccnc21`, the melting point was 126 °C.

Take `CCN(CC)CCN1C(=O)C(NC(=O)c2ccccc2)C(C)(C)SC1=S` (centres undefined): the melting point was 152 to 153 °C.

Consider `CC(=O)N(C(C)=O)n1c(=O)[nH]c2ccccc2c1=O`, for which the melting point was 210 °C.

`CC(C)(C)c1cc(CNc2cccc(Br)c2CO)c(C(=O)O)s1` registered a melting point of 68 to 69 °C.

The molecule `CCCC(=O)c1cc2c(=O)c(C(=O)O)c[nH]c2cc1C` showed a melting point of 249 to 252 °C.

Turning to `CCCCC(CC)CNCCCOc1ccc2ccccc2c1` (centres undefined), the melting point is 97 °C.

For the molecule `COCCOCCOc1ccc2c(c1)S(=O)(=O)N(Cc1ccccc1)C2=O`, the melting point was in the range of 86 to 88 °C.

`O=C(O)c1cccc(Oc2cccc(C(F)(F)F)c2)n1` yielded a melting point of 47 to 49 °C.

With `CCOP(=O)(OCC)ON=C1C=CC(=C(C#N)c2ccccc2C)S1`, the melting point lay within 90 to 91 °C.

Regarding `Brc1ccc(-c2ccc(-c3ccc(Br)o3)cc2)o1`, the melting point is 155 to 157 °C.

Molecule `CC(=O)N1CCN(C2=CC(C)(C)Oc3ccc(C#N)cc32)C1=NC#N` registered a melting point of 200 to 201 °C.

For `CCCCn1c(=O)c2cc(C(=O)O)cn2c2ccccc21`, the melting point lay in the range of 212 to 214 °C.

`Cc1oc(-c2ccccc2)nc1COc1ccc(CON=C(CCC(=O)O)c2cccnc2)cc1` registered a melting point of 158 to 159 °C.

With `COc1cc(C(C)=O)c(F)cc1Cl`, the melting point is 96.5 to 98.5 °C.

For `O=C(O)Cc1cc(F)ccc1Sc1ccccc1`, the melting point fell in the range of 80 to 83 °C.

The molecule `CC1(C)C=C(n2cc(C#N)c3ccccc32)c2cc(C#N)ccc2O1` had a melting point of 192 to 193 °C.

With `Cc1ccc(N2C(=O)C(O)=C(C(=O)c3ccc(C(C)C)cc3)C2c2ccc(OC3CCOCC3)cc2)nn1` (centres undefined), the melting point turned out to be 275 °C.

In the case of `CCS(=O)c1ccccc1S(=O)(=O)NC(=O)Nc1nc(OC)nc(OC)n1` (centres undefined), the melting point was determined as 165 °C.

On to `O=C(NO)c1ccc(CNC(=O)c2[nH]c(-c3ccc(O)cc3)cc2-c2ccoc2)cc1`, for which the melting point was 122 to 123 °C.

Molecule `NC(=O)N/N=C(/C(=O)O)c1ccc(OCCOc2ccc3ccccc3c2)cc1` had a melting point of 204 °C.

Take `NC(=O)N1C(=O)C(=C(OC(=O)c2ccccn2)c2cccs2)c2cc(F)c(Cl)cc21`: the melting point fell in the range of 184 to 185 °C.

`O=C(CC1CCCCCC1)c1cn(CCO)c2cccc(Cl)c12` showed a melting point of 113 to 119 °C.

As to `CCOC(=O)NC(C(=O)OC)C(c1ccccc1)c1ccccc1` (centres undefined), the melting point is 107 to 109 °C.

Turning to `COc1cc(CNC(C)=O)c(Br)cc1O`, the melting point was > 300 °C.

The molecule `CC(=S)NCC1CN(c2ccc(-n3cnc(Cn4ccnc4)c3)c(F)c2)C(=O)O1` (centres undefined) returned a melting point of 160 to 162 °C.

With `CN1CCN(c2c(F)c(F)c([N+](=O)[O-])c(NC3CC3)c2F)CC1`, the melting point is 75 °C.

Consider `CS(=O)(=O)N(Cc1cccnc1)c1ccc(OCC(F)(F)F)cc1`, for which the melting point lay within 69 to 70 °C.

As for `O=C(O)c1ccc(OCC2CCCC2Nc2ccc(Cl)cc2)cc1` (centres undefined), the melting point lay within 153 to 156 °C.

The molecule `O=C(CC1CCCC1)Nc1ccc2c(c1)C(=O)C(Br)CC2` (centres undefined) showed a melting point of 162 to 164 °C.

On to `Cn1c2ccccc2c(=O)c2c([N+](=O)[O-])cccc21`, for which the melting point was 308 to 309 °C.

For `CC1Nc2ccc(NC(=O)c3ccc(C(=NN)C(=O)OCc4ccccc4)cc3)cc2CN(CCc2ccccc2)C1=O` (centres undefined), the melting point stood at 120 °C.

As for `CC(C)(C)OC(=O)C(Nc1ccccc1)c1ccc(Cl)c(Cl)c1` (racemic), the melting point is 94 °C.

As for `CCOC(=O)Nc1nc(-c2ccccc2)c(-c2nc3ccccc3c(=O)n2-c2ccccc2)s1`, the melting point fell in the range of 245 to 247 °C.

In turn, `Oc1ccc2nc(-c3cccc(Cl)c3)oc2c1` gave a melting point of 246 to 248 °C.

Take `Oc1nc(-c2ccc3c(c2)CCO3)nc2ccccc12`: the melting point fell in the range of 289 to 294 °C.

As to `CC(C)(C)OC(=O)Cn1ncc2c1CCN(C(=O)OC(C)(C)C)C2`, the melting point fell in the range of 126 to 127 °C.

Regarding `COC(=O)C1=C(C)NC(C)=C(C(=O)OC)C1c1cc([N+](=O)[O-])ccc1OCCNCC(O)c1ccccc1` (centres undefined), the melting point lay within 135 to 137 °C.

For `Cc1cc(-c2c(-c3ccc(OCC(F)(F)F)c(C(F)(F)F)c3)nc3cncn3c2C(F)(F)F)ccn1`, the melting point was 219 °C.

`CCS(=O)CC(=O)Nc1c(C)cccc1C` (centres undefined) returned a melting point of 114 to 115 °C.

In the case of `N#Cc1cc(C(=O)NNC(=O)c2occc2-c2ccc(Oc3ccccc3)cc2)ccc1O`, the melting point lay in the range of 199 to 200 °C.

The molecule `CCCCCCC(C)(C)c1cc(O)c2c(c1)OCCC1=C2CC(C)CC1` (centres undefined) came in with a melting point of 134 to 136 °C.
